# Results: EP0082266A1, “Substituted 1,5-diaminopentanes, their preparation and pharmaceutical compositions containing them” (BASF Aktiengesellschaft, priority 1981, dated 1983)
# Where a name gives a salt, the structure may show the parent alone.
# Assays:
# [1] = test system: Aconitinarrhythmie der Ratte; assay: Antiarrhythmic activity, aconitine-induced arrhythmia in the anaesthetised rat (oral dosing, aconitine i.v. infusion 60 min later); assay type: in vivo, Ratten (Stamm: Sprague Dawley); settings: for ED50: Rattus norvegicus, po, 1 h, read-out: Wirksame Dosis ED 50 %; for Maximale Wirkung Δ % (Verlängerung der Aconitinfusionsdauer) / R.W. = Relative Wirksamkeit, bezogen auf Chinidin = 1,00: rat, per os; for Maximale Wirkung Δ % (Verlängerung der Aconitinfusionsdauer): effect of the maximal tolerated dose; for R.W. = Relative Wirksamkeit, bezogen auf Chinidin = 1,00: relative potency from ED 50 %
# Procedure: Zur Bestimmung der antiarrhythmischen Wirksamkeit werden die Substanzen Ratten (Stamm: Sprague Dawley, Gewicht 200 bis 250 g) oral appliziert. 45 min später werden die Tiere mit Thiobutabarbital-Natrium (100,0 mg/kg i.p.) narkotisiert. Als arrhythmogene Substanz dient Aconitin, das 60 min nach Substanzapplikation i.v. infundiert wird (Dosierungsgeschwindigkeit: 0,005 mg/kg x min). Bei nicht behandelten Tieren (N = 52) treten nach 2,74 + 0,07 min im EKG Arrhythmien auf, deren Eintritt durch Antiarrhythmika dosisabhängig verzögert werden kann.
# Aus den linearen Beziehungen zwischen log Dosis (mg/kg) der Prüfsubstanzen und der relativen Verlängerung der Aconitin--Infusionsdauer (Δ%) wird die Dosis bestimmt, welche die Infusionsdauer um 50 % verlängert (ED 50 %).
# (§1) Zur weiteren Charakterisierung der Substanzen wird aus der in den Experimenten verwendeten dezimalgeometrischen Dosenfolge (Faktor [formula] ) die antiarrhythmische Wirkung der maximal tolerierten Dosis bestimmt.
# [2] = Acute toxicity / tolerability in the rat after oral dosing (toxic symptoms: changes of baseline ECG, cyanosis, convulsions); assay type: in vivo; settings: in vivo, po; for MTD: per os, highest tolerated dose, at which the maximal effect was read, read-out: Maximale Wirkung Dosis (maximal tolerierte Dosis); for selectivity ratio: read-out: Q = Toxische Dosis / ED 50 %
# Text: as §1
# (§2) Ferner wird die Dosis ermittelt, bei welcher toxische Symptome (Veränderungen des Ausgangs-EKG, Cyanose, Krämpfe) auftreten.
# [3] = test system: Ratte; assay: as above; assay type: in vivo; settings: per os; for Toxizität Dosis: dose after which the first toxic symptoms are observed
# Text: as §1, §2
Structure (SMILES),ED50 [1] [mg/kg],Maximale Wirkung Δ % (Verlängerung der Aconitinfusionsdauer) [1] [%],"R.W. = Relative Wirksamkeit, bezogen auf Chinidin = 1,00 [1]",MTD [2] [mg/kg],selectivity ratio [2],Toxizität Dosis [3] [mg/kg],Q = Toxische Dosis / ED 50 % ([3]; therapeutic width)
"CCCNCC(CCCN(C)CCc1ccccc1)(c1ccccc1)C(C)C (stereo not shown) [Beispiel 10, 1-(n-Propyl)amino-2-isopropyl-2-phenyl-5-(phenethyl)-methylamino-pentan-dihydrochlorid]",11.8,243,"3,69",100,18,215,–
"CCNCC(CCCN(C)CCc1ccc(OC)c(OC)c1)(c1cc(OC)c(OC)c(OC)c1)C(C)C (stereo not shown) [Beispiel 20, 1-Ethylamino-2-isopropyl-2-(3,4,5-trimethoxyphenyl)-5--[(3,4-dimethoxyphenethyl)methylamino]-pentan-dihydrochlorid]",12.3,224,"3,54",215,38,464,–
"CNCC(CCCN(C)CCc1ccccc1)(c1ccccc1)C(C)C (stereo not shown) [Beispiel 30, 1-Methylamino-2-isopropyl-2-phenyl-5-(phenethyl)methyl-amino-pentan-dihydrochlorid]",11,499,"3,96",215,42,464,–
"CC(C)CNCC(CCCN(C)CCc1ccccc1)(c1ccccc1)C(C)C (stereo not shown) [Beispiel 14, 1-Isobutylamino-2-isopropyl-2-phenyl-5-(phenethyl)-methylamino-pentan-dihydrochlorid]",14.3,287,"3,04",100,15,215,–
"C=CC1CN2CCC1CC2C(O)c1ccnc2ccc(OC)cc12 (stereo not shown) [Chinidin, reference compound]",43.5,129,"≡ 1,00",–,–,464,ll
"CCC(C)NCC(CCCN(C)CCc1ccccc1)(c1ccccc1)C(C)C (stereo not shown) [Beispiel 13, 1-(sec-Butyl)amino-2-isopropyl-2-phenyl-5-(phenethyl)-methylamino-pentan-dihydrochlorid]",12.9,237,"3,37",100,17,215,–
"CC(C)C(CCCN(C)CCc1ccccc1)(CN(C)C)c1ccccc1 (stereo not shown) [Beispiel 37, 1-Dimethylamino-2-isopropyl-2-phenyl-5-(phenethyl)--methylamino-pentan-dihydrochlorid]",7.99,423,"5,44",46.4,13,100,–
"CCCCNCC(CCCN(C)CCc1ccc(OC)c(OC)c1)(c1ccc(Cl)cc1)C(C)C (stereo not shown) [Beispiel 27, 1-(n-Butyl)amino-2-isopropyl-2-(4-chlorphenyl)--5-[(3,4-dimethoxyphenethyl)methylamino]-pentan--dihydrochlorid]",21.5,–,"2,02",–,–,–,–
"CC(C)C(CN)(CCCNCCc1ccccc1)c1ccccc1.Cl.Cl (stereo not shown) [Beispiel 6, 1-Amino-2-isopropyl-2-phenyl-5-(phenethyl)amino--pentan-dihydrochlorid]",21.6,–,"2,01",–,–,–,–
"CNCC(CCCN(C)CCc1ccccc1)c1ccccc1 (stereo not shown) [Beispiel 28, 1-Methylamino-2-phenyl-5-(phenethyl)methylamino--pentan]",11.6,–,"3,75",–,–,–,–
"CCCCCCCCCCCCC(CCCN(C)CCc1ccccc1)(CN(C)C)c1ccccc1 (stereo not shown) [Beispiel 40, 1-Dimethylamino-2-(n-dodecyl)-2-phenyl-5-(phenethyl)methylamino-pentan]",6.88,–,"6,32",–,–,–,–
"COc1ccc(CCN(C)CCCC(CN(C)C)(c2ccc(OC)c(OC)c2)C(C)C)cc1OC (stereo not shown) [Beispiel 38, 1-Dimethylamino-2-isopropyl-2-(3,4-dimethoxyphenyl)--5-[(3,4-dimethoxyphenethyl)methylamino]-pentan-dihydrochlorid]",27.8,–,"1,57",–,–,–,–
"CC(C)C(CN)(CCCN(C)CCc1ccccc1)c1ccccc1 (stereo not shown) [Beispiel 1, 1-Amino-2-isopropyl-2-phenyl-5-(phenethyl)methylamino-pentan]",29.4,–,"1,48",–,–,–,–
"CCNCC(CCCN(C)CCc1ccccc1)(c1ccccc1)C(C)C (stereo not shown) [Beispiel 9, 1-Ethylamino-2-isopropyl-2-phenyl-5-(phenethyl)-methyl-amino-pentan-dihydrochlorid]",11.8,–,"3,69",–,–,–,–
